Experiments:
Assay type in all cases: cell-based
[1] = system: GABAAR co-expressed with UT^HA 351, UT^HA 332 or UT^HA 319; assay: Patch-clamp of Iso-evoked current in CHO co-expressing GABAAR and shorter truncated UT (UT^HA 351, UT^HA 332, UT^HA 319); conditions: hUII 10^−8 M, 1 min; Iso 10^−4 M, 2 s
Text: For UT epitope-tagged with HA (UT^HA), or c-myc (UT^c-myc), human UT receptor cDNA inserted into pcDNA3.1 (Ressource Center, MI, USA) was amplified and PCR products were subcloned using the EcoRI and XhoI sites of pCMV-HA or pCMV-c-myc. Mutant UT receptor cDNAs were constructed by oligonucleotide-directed mutagenesis (Expand High Fidelity PCR System; Roche) using the human UT receptor cDNA inserted into pcDNA3.1 as a template. Two sets of forward and reverse oligonucleotides were used (Table S2) to introduce stop codons in frame of Leu370, Phe351, Gly332 and Thr319 (to generate UT371, UT351, UT332 and UT319, respectively). PCR products were subcloned using the EcoRI and XhoI sites of pCMV-HA after digestion by the same restriction enzymes. Mutagenesis was confirmed by automated nucleotide sequencing.
The conventional whole-cell configuration of the patch-clamp technique was used to study the GABA-gated currents in astrocytes and granule neurons, UT stably transfected CHO, CHO-UT, and CHO transiently transfected with diverse variants of UT and GABAAR subunits. After 24-h transfection, cell culture coverslips were placed in a small chamber (1.5 ml) on a stage of a right microscope DMLFSA (Leica, Heidelberg, Germany) and superfused continuously with the following bath solution containing (in mM): NaCl, 150; KCl, 2.5; HEPES, 5; CaCl2, 2; MgCl2, 1; glucose, 10 (pH 7.4 adjusted with NaOH). […]

[2] = system: β3 GABAAR subunit in human U87 glioma; assay: Cell surface ELISA of β3 GABAAR subunit in U87 glioma; conditions: hUII 10^−8 M, 30 min, 37°C, at least 3 independent experiments in triplicates
Description: The human cell line from glioblastoma U87 was obtained from the American Type Culture Collection (LGC Standards, Molsheim, France). U87 cells were maintained in DMEM containing 10% FBS and 1% sodium pyruvate. NHA-Astrocytes (Lonza, Walkersville, MD, USA) were cultivated in DMEM culture medium supplemented with 2 mM glutamine, 5 mM HEPES, 1% non essential amino acids, 1% sodium pyruvate, B27, 25 ng/ml EGF, 1% of the antibiotic-antimycotic solution and 10% FBS. All cells were incubated at 37°C in a humidified atmosphere containing 5% CO2. Culture media were replaced every three days.
Cells were plated at 50 000 cells/well in 96-well plates coated with 0.1 mg/ml poly-L-ornithine (Sigma-Aldrich). […] Cells were fixed with 4% PFA in PBS for 5 min at RT, washed in PBS, and then permeabilized in 0.05% triton X100 (only for permeabilized cells) and non specific binding were blocked with PBS containing 1% FBS for 30 min at RT. […] The cells were washed four times with PBS, a colorimetric alkaline phosphatase substrate was added (SuperSignal ELISA, Thermo scientific, Fisher) and the resulting color reaction was measured using a Viktor multilabel plate reader (PerkinElmer, Courtaboeuf, France). Background absorbance from samples transfected with non-tagged receptors or from cells without first antibodies were systematically measured. […]

[3] = system: α2β3γ2 GABAAR in the absence of UT; assay: Patch-clamp of Iso-evoked current in CHO expressing α2β3γ2 GABAAR without UT; conditions: DMCM 10^−5 M; hUII and URP 10^−8 M; [Orn^5]-URP and palosuran 10^−6 M; Iso 10^−4 M, 2 s; n = 3–18
Description: For transfection, cells were trypsinized (0.05%), triturated in HamF-12 containing 10% FBS media, pelleted by centrifugation, resuspended in 100 µl solution V for nucleofection by an Amaxa Nucleofector Device (Köln, Germany; set to program U-016). Experiments were performed on normal CHO or on the stable CHO-UT cells and transiently transfected with combinations of cDNA encoding α2β3γ2, α2β3γ1, α2β1γ2, α2β3γ1, α2β3, β3γ2 (4 µg of cDNA total/transfection) GABAAR subunits. Cells were seeded on 14-mm poly-L-lysine-coated glass bottom insert dishes at 5×10^5 cells in a volume of 0.5 ml/dish. Cells were incubated overnight at 37°C in a humidified incubator (5% CO2) during 16 h before electrophysiological or immunocytochemical experiments.
GABAA receptor cDNA clones; α2, β1, β3, γ1 and γ2L engineered into the expression vector pCDM8 ([…], β1, γ2) or pcDNA/Amp (β3, γ1), were generously provided by Dr Wingrove (Merk Sharp and Dohme, Harlow, UK). To obtain β3 ^HA or γ2 ^HA epitope-tagged subunits, β3 or γ2 cDNA was amplified and the PCR product was subcloned using the SalI and NotI sites of pCMV-HA (Table S2) after digestion by the same restriction enzymes.
The conventional whole-cell configuration of the patch-clamp technique was used to study the GABA-gated currents in astrocytes and granule neurons, UT stably transfected CHO, CHO-UT, and CHO transiently transfected with diverse variants of UT and GABAAR subunits. After 24-h transfection, cell culture coverslips were placed in a small chamber (1.5 ml) on a stage of a right microscope DMLFSA (Leica, Heidelberg, Germany) and superfused continuously with the following bath solution containing (in mM): NaCl, 150; KCl, 2.5; HEPES, 5; CaCl2, 2; MgCl2, 1; glucose, 10 (pH 7.4 adjusted with NaOH). The patch pipettes were fabricated from 1.5 mm (outer diameter) soft glass tubes on a two-step vertical pipette puller (List-Medical, L/M-3P-A, Darmstadt, Germany). […] ATP and GTP were added to the internal solution used to fill electrode just before recording. All recordings were obtained at RT with cells voltage-clamped at −70 mV. The GABAA receptor agonist isoguvacine was prepared in the extracellular solution and was applied to cells by pneumatic pressure ejection. To prevent desenzitization, isoguvacine was more often ejected during 5 s at 2-min intervals. ATP, GTP, or guanosine 5′-O-(2-thiodiphosphate) (GDPβS) were administered through the patch pipette solution. We investigated the effect of competitive inhibition of GDP-GTP exchange by including GDPβS in the pipette solution (in addition to the normal amount of GTP). For GDPβS and the KIC, immediately following patch rupture, GABA current recordings were performed and the experiment was commenced after an equilibration period of 15 min. […]

ETPDCFWKYCV (disulfide) [hUII, human urotensin II, synthesized by solid phase methodology]
hUII effect on GABAAR activity with shorter truncated UT forms [1]: totally failed to alter the GABAAR activity | β3-associated GABAAR subunit internalization, without UT319–389 [2]: 20% | Effect on Iso-evoked current in the absence of UT [3]: failed to affect the amplitude of the current

Reference: article PMC3341351, “Down-Regulation of GABAA Receptor via Promiscuity with the Vasoactive Peptide Urotensin II Receptor. Potential Involvement in Astrocyte Plasticity” (PLoS ONE, 2012)
